In ChEMBL document CHEMBL4814018, “Rationally designed TNF-α inhibitors: Identification of promising cytotoxic agents” (Bioorg Med Chem Lett, 2021):
Activity calls are given as the source filed them. The calls are words filed in the database; no cut-off is given here.

Assays:
[1] = system: HCT-116; assay: Growth inhibition of human HCT-116 cells at 10 uM incubated for 48 hrs by sulforhodamine B assay relative to control; format: functional; conditions: read-out: GI
[2] = system: OVCAR-5; assay: Growth inhibition of human OVCAR-5 cells incubated for 48 hrs by sulforhodamine B assay; format: functional
[3] = system: CAKI-1; assay: Growth inhibition of human CAKI-1 cells incubated for 48 hrs by sulforhodamine B assay; format: functional
[4] = Therapeutic index, ratio of LC50 for human Panel NCI-60 (60 carcinoma cell lines) to GI50 for human Panel NCI-60 (60 carcinoma cell lines); format: functional
[5] = system: IGROV-1; assay: Growth inhibition of human IGROV-1 cells at 10 uM incubated for 48 hrs by sulforhodamine B assay relative to control; format: functional; conditions: read-out: GI
[6] = system: NCI-H226; assay: Growth inhibition of human NCI-H226 cells at 10 uM incubated for 48 hrs by sulforhodamine B assay relative to control; format: functional; conditions: read-out: GI
[7] = system: Panel NCI-60 (60 carcinoma cell lines); assay: Growth inhibition of human Panel NCI-60 (60 carcinoma cell lines) incubated for 48 hrs by sulforhodamine B assay; format: functional
[8] = system: SR; assay: Growth inhibition of human SR cells incubated for 48 hrs by sulforhodamine B assay; format: functional
[9] = system: U-251; assay: Growth inhibition of human U-251 cells incubated for 48 hrs by sulforhodamine B assay; format: functional
[10] = system: HOP-62; assay: Growth inhibition of human HOP-62 cells incubated for 48 hrs by sulforhodamine B assay; format: functional
[11] = system: MDA-MB-231; assay: Growth inhibition of human MDA-MB-231 cells at 10 uM incubated for 48 hrs by sulforhodamine B assay relative to control; format: functional; conditions: read-out: GI
[12] = system: UACC-62; assay: Growth inhibition of human UACC-62 cells at 10 uM incubated for 48 hrs by sulforhodamine B assay relative to control; format: functional; conditions: read-out: GI
[13] = system: TK-10; assay: Growth inhibition of human TK-10 cells incubated for 48 hrs by sulforhodamine B assay; format: functional
[14] = system: UACC-62; assay: Growth inhibition of human UACC-62 cells incubated for 48 hrs by sulforhodamine B assay; format: functional
[15] = system: SK-OV-3; assay: Growth inhibition of human SK-OV-3 cells at 10 uM incubated for 48 hrs by sulforhodamine B assay relative to control; format: functional; conditions: read-out: GI
[16] = system: K562; assay: Growth inhibition of human K562 cells incubated for 48 hrs by sulforhodamine B assay; format: functional
[17] = system: SF-295; assay: Growth inhibition of human SF-295 cells incubated for 48 hrs by sulforhodamine B assay; format: functional
[18] = system: HOP-92; assay: Growth inhibition of human HOP-92 cells incubated for 48 hrs by sulforhodamine B assay; format: functional
[19] = system: OVCAR-5; assay: Growth inhibition of human OVCAR-5 cells at 10 uM incubated for 48 hrs by sulforhodamine B assay relative to control; format: functional; conditions: read-out: GI
[20] = system: SW-620; assay: Growth inhibition of human SW-620 cells at 10 uM incubated for 48 hrs by sulforhodamine B assay relative to control; format: functional; conditions: read-out: GI
[21] = system: BV-2; assay: Antiinflammatory activity against mouse BV2 cells assessed as reduction in LPS-induced IL6 production at 1 uM by enzyme immunoassay; format: functional, cell-based
[22] = system: UO-31; assay: Growth inhibition of human UO-31 cells incubated for 48 hrs by sulforhodamine B assay; format: functional
[23] = system: UO-31; assay: Growth inhibition of human UO-31 cells at 10 uM incubated for 48 hrs by sulforhodamine B assay relative to control; format: functional; conditions: read-out: GI
[24] = system: MDA-MB-468; assay: Growth inhibition of human MDA-MB-468 cells incubated for 48 hrs by sulforhodamine B assay; format: functional
[25] = system: A498; assay: Growth inhibition of human A498 cells at 10 uM incubated for 48 hrs by sulforhodamine B assay relative to control; format: functional; conditions: read-out: GI
[26] = system: SK-OV-3; assay: Growth inhibition of human SK-OV-3 cells incubated for 48 hrs by sulforhodamine B assay; format: functional
[27] = system: SW-620; assay: Growth inhibition of human SW-620 cells incubated for 48 hrs by sulforhodamine B assay; format: functional
[28] = system: SK-MEL-2; assay: Growth inhibition of human SK-MEL-2 cells at 10 uM incubated for 48 hrs by sulforhodamine B assay relative to control; format: functional; conditions: read-out: GI
[29] = system: IGROV-1; assay: Growth inhibition of human IGROV-1 cells incubated for 48 hrs by sulforhodamine B assay; format: functional
[30] = system: OVCAR-4; assay: Growth inhibition of human OVCAR-4 cells incubated for 48 hrs by sulforhodamine B assay; format: functional
[31] = system: BV-2; assay: Cytotoxicity against mouse BV2 cells incubated for 48 hrs by MTT assay; format: cell-based; conditions: BV-2, 48 h
[32] = system: T47D; assay: Growth inhibition of human T47D cells incubated for 48 hrs by sulforhodamine B assay; format: functional
[33] = system: BV-2; assay: Antiinflammatory activity against mouse BV2 cells assessed as inhibition of LPS-induced TNFalpha production at 1 uM by enzyme immunoassay; format: functional; parameters: scale not given: the % may be the effect or the level left
[34] = system: T47D; assay: Growth inhibition of human T47D cells at 10 uM incubated for 48 hrs by sulforhodamine B assay relative to control; format: functional; conditions: read-out: GI
[35] = system: RPMI-8226; assay: Growth inhibition of human RPMI8226 cells at 10 uM incubated for 48 hrs by sulforhodamine B assay relative to control; format: functional; conditions: read-out: GI
[36] = system: K562; assay: Growth inhibition of human K562 cells at 10 uM incubated for 48 hrs by sulforhodamine B assay relative to control; format: functional; conditions: read-out: GI
[37] = system: CAKI-1; assay: Growth inhibition of human CAKI-1 cells at 10 uM incubated for 48 hrs by sulforhodamine B assay relative to control; format: functional; conditions: read-out: GI
[38] = system: HOP-92; assay: Growth inhibition of human HOP-92 cells at 10 uM incubated for 48 hrs by sulforhodamine B assay relative to control; format: functional; conditions: read-out: GI
[39] = system: BV-2; assay: Antiinflammatory activity against mouse BV2 cells assessed as decrease in LPS-induced NO production at 1 to 5 uM pretreated with compound followed by LPS stimulation incubated for 4 to 48 hrs by enzyme immunoassay; format: functional, cell-based; conditions: dose 1-5 µM, time 4-48 hrs
[40] = system: U-251; assay: Growth inhibition of human U-251 cells at 10 uM incubated for 48 hrs by sulforhodamine B assay relative to control; format: functional; conditions: read-out: GI
[41] = system: SF-295; assay: Growth inhibition of human SF-295 cells at 10 uM incubated for 48 hrs by sulforhodamine B assay relative to control; format: functional; conditions: read-out: GI
[42] = system: MDA-MB-231; assay: Growth inhibition of human MDA-MB-231 cells incubated for 48 hrs by sulforhodamine B assay; format: functional
[43] = system: OVCAR-4; assay: Growth inhibition of human OVCAR-4 cells at 10 uM incubated for 48 hrs by sulforhodamine B assay relative to control; format: functional; conditions: read-out: GI
[44] = system: NCI-H460; assay: Growth inhibition of human NCI-H460 cells incubated for 48 hrs by sulforhodamine B assay; format: functional
[45] = system: RPMI-8226; assay: Growth inhibition of human RPMI-8226 cells incubated for 48 hrs by sulforhodamine B assay; format: functional; conditions: dose 10 µM
[46] = system: TK-10; assay: Growth inhibition of human TK-10 cells at 10 uM incubated for 48 hrs by sulforhodamine B assay relative to control; format: functional; conditions: read-out: GI
[47] = system: HCT-116; assay: Growth inhibition of human HCT-116 cells incubated for 48 hrs by sulforhodamine B assay; format: functional
[48] = system: MCF7; assay: Growth inhibition of human MCF7 cells at 10 uM incubated for 48 hrs by sulforhodamine B assay relative to control; format: functional; conditions: read-out: GI
[49] = system: MCF7; assay: Growth inhibition of human MCF7 cells incubated for 48 hrs by sulforhodamine B assay; format: functional
[50] = system: SK-MEL-2; assay: Growth inhibition of human SK-MEL-2 cells incubated for 48 hrs by sulforhodamine B assay; format: functional
[51] = system: SR; assay: Growth inhibition of human SR cells at 10 uM incubated for 48 hrs by sulforhodamine B assay relative to control; format: functional; conditions: read-out: GI
[52] = system: MDA-MB-468; assay: Growth inhibition of human MDA-MB-468 cells at 10 uM incubated for 48 hrs by sulforhodamine B assay relative to control; format: functional; conditions: read-out: GI
[53] = system: HOP-62; assay: Growth inhibition of human HOP-62 cells at 10 uM incubated for 48 hrs by sulforhodamine B assay relative to control; format: functional; conditions: read-out: GI
[54] = system: UACC-257; assay: Growth inhibition of human UACC-257 cells incubated for 48 hrs by sulforhodamine B assay; format: functional
[55] = system: OVCAR-3; assay: Growth inhibition of human OVCAR-3 cells incubated for 48 hrs by sulforhodamine B assay; format: functional
[56] = system: NCI-H226; assay: Growth inhibition of human NCI-H226 cells incubated for 48 hrs by sulforhodamine B assay; format: functional
[57] = system: UACC-257; assay: Growth inhibition of human UACC-257 cells at 10 uM incubated for 48 hrs by sulforhodamine B assay relative to control; format: functional; conditions: read-out: GI
[58] = system: OVCAR-3; assay: Growth inhibition of human OVCAR-3 cells at 10 uM incubated for 48 hrs by sulforhodamine B assay relative to control; format: functional; conditions: read-out: GI
[59] = system: A498; assay: Growth inhibition of human A498 cells incubated for 48 hrs by sulforhodamine B assay; format: functional
[60] = system: NCI-H460; assay: Growth inhibition of human NCI-H460 cells at 10 uM incubated for 48 hrs by sulforhodamine B assay relative to control; format: functional; conditions: read-out: GI
[61] = read-out: LC50 (the source's name)

O=C1COCCN1c1ccc(NCc2cn(Cc3ccc(Cl)cc3)c3ccccc23)cc1
inhibition of growth at 10 µM [1]: 96% | GI50 [2]: 180 nM | CC50 [2, 61]: 9600 nM | GI50 [3]: 50 nM | CC50 [3, 61]: > 100000 nM | TI [4]: 34 | inhibition of growth at 10 µM [5]: 100% | inhibition of growth at 10 µM [6]: 93% | GI50 [7]: 2090 nM | TGI [7]: 25100 nM | CC50 [7, 61]: 70800 nM | GI50 [8]: 3000 nM | GI50 [9]: 1200 nM | GI50 [10]: 1000 nM | inhibition of growth at 10 µM [11]: 77% | inhibition of growth at 10 µM [12]: 100% | GI50 [13]: 140 nM | CC50 [13, 61]: > 100000 nM | GI50 [14]: 390 nM | inhibition of growth at 10 µM [15]: 91% | GI50 [16]: 1800 nM | GI50 [17]: 1800 nM | GI50 [18]: 1600 nM | inhibition of growth at 10 µM [19]: 100% | inhibition of growth at 10 µM [20]: 73% | Activity [21]: Active | GI50 [22]: 2080 nM | inhibition of growth at 10 µM [23]: 92% | GI50 [24]: 100 nM | CC50 [24, 61]: 800 nM | inhibition of growth at 10 µM [25]: 100% | GI50 [26]: 2290 nM | GI50 [27]: 2200 nM | inhibition of growth at 10 µM [28]: 89% | GI50 [29]: 250 nM | GI50 [30]: 480 nM | IC50 [31]: > 10000 nM | GI50 [32]: 260 nM | Activity [33]: 75% | inhibition of growth at 10 µM [34]: 95% | inhibition of growth at 10 µM [35]: 95% | inhibition of growth at 10 µM [36]: 94% | inhibition of growth at 10 µM [37]: 100% | inhibition of growth at 10 µM [38]: 90% | Activity [39]: Active | inhibition of growth at 10 µM [40]: 89% | inhibition of growth at 10 µM [41]: 85% | GI50 [42]: 4500 nM | inhibition of growth at 10 µM [43]: 94% | GI50 [44]: 260 nM | GI50 [45]: 2100 nM | inhibition of growth at 10 µM [46]: 100% | GI50 [47]: 240 nM | inhibition of growth at 10 µM [48]: 96% | GI50 [49]: 290 nM | GI50 [50]: 2180 nM | inhibition of growth at 10 µM [51]: 87% | inhibition of growth at 10 µM [52]: 100% | inhibition of growth at 10 µM [53]: 83% | GI50 [54]: 270 nM | GI50 [55]: 1200 nM | GI50 [56]: 150 nM | CC50 [56, 61]: 3600 nM | inhibition of growth at 10 µM [57]: 100% | inhibition of growth at 10 µM [58]: 96% | GI50 [59]: 30 nM | CC50 [59, 61]: 400 nM | inhibition of growth at 10 µM [60]: 93%
